What was measured:
[1] = population pharmacokinetic (PopPK) modeling and simulation of the cenobamate effect on concomitant AED concentrations in subjects with partial onset seizures; type: in vivo, human; conditions: cenobamate dose 100-400 mg/day
Procedure: This study was carried out to make an assessment of the extent to which the adjunctive treatment with cenobamate may affect the recommended dosing of other AEDs. Population pharmacokinetics (PopPK) models describing how cenobamate exposure affects that of other commonly used AEDs (i.e., carbamazepine, lamotrigine, levetiracetam, oxcarbazepine, phenytoin and valproic acid) when given as adjunct therapy.
Therapeutically effective amount for AEDs are different depending on the condition of subjects participated in the study. For carbamazepine, therapeutically effective amount was about 800 mg/day to about 1,200 mg/day for adults and children over 12 years of age. For lamotrigine, therapeutically effective amount was about 100 mg/day to about 500 mg/day, preferably about 100 mg/day to 200 mg/day, for adults and children over 12 years of age. For levetiracetam, therapeutically effective amount was about 3,000 mg/day for adults and children over 12 years of age. For phenytoin, therapeutically effective amount was about 300 mg/day to about 600 mg/day for adults. For valproic acid, therapeutically effective amount was about 60 mg/kg/day for adults.
PopPk datasets were constructed from clinical databases for Cenobamate Study 1, Cenobamate Study 2 and Cenobamate Study 3. The dosing, exposure, covariate and AED concentration data were merged by subject, date, and time; formatted for PopPK analysis and saved in ASCII format using R software (Version 3.2.2, Comprehensive R Network, cran.r-project.org). All data programs were documented and archived in a locked on-line repository in order to maintain an audit trail. A quality control (QC) check of the data management procedure was conducted according to qPharmetra standard operating procedures (SOPs).
Results from Cenobamate Study 1, Cenobamate Study 2 and Cenobamate Study 3 were included in the analyses. Each study is described in more detail in the subsequent sections.
This is a multicenter, double-blind, randomized, adjunctive placebo-controlled trial with an open-label extension phase to evaluate the efficacy and safety of cenobamate in subjects with treatment resistant partial onset seizures. Subjects with partial onset seizures not fully controlled despite their treatment with 1 to 3 concomitant AEDs were included in this study. The study included an 8 week baseline period to assess seizure frequency. Only subjects who experienced at least 3 seizures/month during the baseline period with no 21-day seizure-free period were randomized in a 1:1 ratio to add-on placebo or cenobamate administered in an oral formulation once daily in the morning. Subjects then entered a 12-week double-blind treatment period, consisting of a 6-week titration phase followed by a 6-week maintenance phase. In maintenance phase, the dose was 200 mg/day. Blood samples were drawn at the baseline, predose at the start of the titration phase, and on days 15, 29, 43, 57 and 85 after the first dose during the double-blinded treatment period. These samples were analyzed for lamotrigine, levetiracetam, oxcarbazepine, carbamazepine, and valproic acid.
This is a multicenter, double-blind, randomized, placebo-controlled dose-response study, with an 8-week prospective baseline and an 18-week double-blind treatment period. Subjects must have had least 8 partial seizures including only simple partial seizures with motor component, complex partial seizures, or secondarily generalized seizures without a seizure-free interval of greater than 25 days any time during the 8-week baseline despite their treatment with 1 to 3 AEDs. Subjects must have had at least 3 of these partial seizures during each of the two consecutive 4-week periods in the baseline period to be randomized to 100, 200 or 400 mg/day cenobamate or placebo (1:1:1:1 ratio) administered as a tablet formulation once daily in the morning. Subjects first entered a 6-week titration followed by a 12-week maintenance phase. […]

[2] = open-label multiple dose PK drug-interaction studies of cenobamate co-administered with AEDs; type: in vivo, human
Procedure: This study was carried out to assess the effect of cenobamate on the disposition of four AEDs (divalproex sodium, phenobarbital, phenytoin and carbamazepine) and the effect of four AEDs on the disposition of cenobamate. The details are described below.
Five open-label, multiple dose, multiple period, 1 sequence, PK drug-interaction studies were conducted examining co-administration of cenobamate and each of the above-mentioned AEDs. Specifically, five studies were conducted, as follows:
This is an open-label, multiple-dose, 1 sequence, 3 period pharmacokinetic drug interaction study between cenobamate and divalproex in normal volunteer subjects. Sixteen subjects were enrolled. All subjects were scheduled to undergo 3 treatment periods as a 1 sequence design: • Period 1 (Days 1 to 5): Single oral daily administration of 1000 mg divalproex (Treatment A). • Period 2 (Days 6 to 19): Co-administration of single oral daily administration of 1000 mg divalproex and 150 mg cenobamate (Treatments A and B). • Period 3 (Days 20 to 25): Single oral daily administration of 150 mg cenobamate (Treatment B). (Number of Subjects Planned: 16 Enrolled: 16 Analyzed: 16) Study 2—Phenobarbital
This is an open-label, 1-arm, 2-treatment study. Sixteen (16) healthy, adult, non-tobacco using, male and female subjects were enrolled. Screening of subjects occurred within 28 days prior to the first dose. A total of 16 subjects were enrolled in the study, and 14 subjects completed the study. The PK dataset therefore included 16 subjects for phenobarbital alone and 14 subjects for the combination treatment. There were 16 subjects included in the safety analyses.
Treatment A subjects received 30 mg phenobarbital TID on Days 1 to 7, followed by 90 mg phenobarbital QD in the morning on Days 8 to 21. All study drugs were administered orally with approximately 240 mL of water.
Treatment B subjects received 90 mg phenobarbital QD in the morning from Days 22 to 56 co-administered with 50 mg cenobamate QD on Days 22 to 28, 100 mg cenobamate QD on Days 29 to 35, 150 mg cenobamate QD on Days 36 to 42, and 200 mg cenobamate QD on Days 43 to 56. All study drugs were administered orally with approximately 240 mL of water. The study duration was approximately 13 weeks from screening to end-of-study procedures. There was approximately 17 weeks from screening to attempted follow-up phone call. There was no washout. […]
Blood samples were obtained prior to and following dosing at selected times through 24 hours postdose on selected days (Days 14, 28, and 70). Plasma samples were analyzed for phenytoin and cenobamate concentrations using validated analytical methods. Appropriate PK parameters were calculated for each treatment using non-compartmental methods. […]

[3] = combination therapy with phenytoin vs cenobamate alone (FIG. 3)
[4] = combination therapy with cenobamate vs AED alone (FIG. 2)

Structure (SMILES): NC(=O)N1c2ccccc2C=Cc2ccccc21 [Carbamazepine, carbamazepine]
- Effect on AED Concentration (AUC): Reduction by [1]: Reduction by 11-34%

Structure (SMILES): Nc1nnc(-c2cccc(Cl)c2Cl)c(N)n1 [Lamotrigine, lamotrigine]
- Effect on AED Concentration (AUC): Reduction by [1]: Reduction by 21-52%

Structure (SMILES): CC[C@@H](C(N)=O)N1CCCC1=O [Levetiracetam, levetiracetam]
- Effect on AED Concentration (AUC): Reduction by [1]: Reduction by 4-13%

Structure (SMILES): NC(=O)N1c2ccccc2CC(=O)c2ccccc21 [Oxcarbazepine, oxcarbazepine]
- Effect on AED Concentration (AUC): Increase by [1]: Increased by 10%

Structure (SMILES): O=C1NC(=O)C(c2ccccc2)(c2ccccc2)N1 [Phenytoin, phenytoin]
- Effect on AED Concentration (AUC): Increase by [1]: Increase by 10-60%

Structure (SMILES): CCCC(CCC)C(=O)O [Valproic acid, valproic acid]
- Effect on AED Concentration (AUC): Reduction by [1]: Reduction by 5-19%

Structure (SMILES): NC(=O)O[C@@H](Cn1ncnn1)c1ccccc1Cl [cenobamate, [(1R)-1-(2-chlorophenyl)-2-(tetrazol-2-yl)ethyl] carbamate]
- plasma AUC for cenobamate [2, 3]: decreased
- plasma Cmax for cenobamate [2, 3]: decreased

Structure (SMILES): CCC1(c2ccccc2)C(=O)NC(=O)NC1=O [phenobarbital]
- plasma AUC of the AED [2, 4]: increased
- plasma Cmax of the AED [2, 4]: increased
